Test results as given in PMC9267128, “New 2-[(4-Amino-6-N-substituted-1,3,5-triazin-2-yl)methylthio]-N-(imidazolidin-2-ylidene)-4-chloro-5-methylbenzenesulfonamide Derivatives, Design, Synthesis and Anticancer Evaluation” (International Journal of Molecular Sciences, 2022).

Columns and labels:
HCT-116 (colon cancer) = assay: MTT cell viability assay, HCT-116; format: cell-based, human; conditions: for IC50: MTT assay, 72 h of incubation
Procedure: (§1) Analysis was performed using an MTT assay after 72 h of incubation.
(§2) All chemicals, if not stated otherwise, were obtained from Sigma–Aldrich (St. Louis, MO, USA). The HCT-116 cell line was purchased from ATCC (ATCC-No: CCL-247), while the MCF-7, HeLa and HaCaT cell lines were purchased from Cell Lines Services (Eppelheim, Germany). Cells were cultured in Dulbecco’s modified Eagle’s medium (DMEM) supplemented with 10% fetal bovine serum, 2 mM glutamine, 100 units/mL penicillin and 100 µg/mL streptomycin. Cultures were maintained in a humidified atmosphere with 5% carbon dioxide at 37 °C in an incubator (Heraceus, HeraCell).
(§3) Cell viability was examined using the MTT [3-(4,5-dimethylthiazol-2-yl)-2,5-diphenyltetrazolium bromide] assay. Cells were seeded in 96-well plates at a density of 3 × 10^3 cells/well and treated for 72 h with the tested compounds in the concentration range of 1–100 µM. Then, MTT (0.5 mg/mL) was added to the medium and cells were further incubated for 2 h at 37 °C. In the next stage, cells were lysed with DMSO and the absorbance of the formazan solution was measured at 550 nm with a plate reader (1420 multilabel counter, Victor, Jügesheim, Germany). The experiment was performed in triplicate. Values are expressed as the mean ± SD of at least three independent experiments.

MCF-7 (breast cancer) = assay: MTT cell viability assay, MCF-7; format: cell-based, human; conditions: for IC50: Homo sapiens, MCF7, 72 h, MTT assay, 72 h of incubation
Procedure: (§4) Compounds 20–162 were evaluated in vitro for their effects on the viability of three cancer cell lines: HCT-116 (colon cancer), MCF-7 (breast cancer) and HeLa (cervical cancer), as well as the non-cancerous keratinocyte cell line (HaCaT). […] Analysis was performed using an MTT assay after 72 h of incubation.
as §2
as §3, with “experiments. Cisplatin was used as a positive control.” for “experiments.”

HeLa (cervical cancer) = assay: MTT cell viability assay, HeLa; format: cell-based, human; conditions: for IC50: Homo sapiens, HeLa, MTT assay, 72 h of incubation
Procedure: as §1, §2, §3

[1] = test system: HaCaT (human keratinocyte cell line); assay: MTT cell viability assay, non-cancerous HaCaT; format: cell-based; conditions: Homo sapiens, HaCaT, 72 h, 72 h of incubation, non-cancerous keratinocytes
Procedure: as §4, §2
as §3, with “experiments. Cisplatin was used as a positive control.” for “experiments.”

Compound | IC50 (HCT-116 (colon cancer); Homo sapiens, HCT-116, 72 h) | IC50 (MCF-7 (breast cancer)) | IC50 (HeLa (cervical cancer)) | IC50 [1] | Selectivity Index (SI) HCT-116 (HCT-116 (colon cancer); IC50 value toward HaCaT cells/IC50 value toward HCT-116) | IC50 (HCT-116 (colon cancer)) | Selectivity Index (SI) MCF-7 (MCF-7 (breast cancer); IC50 value toward HaCaT cells/IC50 value toward MCF-7) | Selectivity Index (SI) HeLa (HeLa (cervical cancer); IC50 value toward HaCaT cells/IC50 value toward HeLa)
Cc1cc(S(=O)(=O)N=C2NCCN2Cc2ccc(Br)cc2)c(SCc2nc(N)nc(N3CCN(c4ccc(Cl)cc4)CC3)n2)cc1Cl [Compound 109] | 23 ± 1 µM | 22 ± 0.5 µM | 36 ± 2 µM | 55 ± 2 µM |  |  |  | 
Cc1cc(S(=O)(=O)N=C2NCCN2Cc2ccc(C(F)(F)F)cc2)c(SCc2nc(N)nc(N3CCc4ccccc43)n2)cc1Cl [Compound 120] | 9 ± 0.5 µM | 11 ± 0.1 µM | 12 ± 0.5 µM | 24 ± 1 µM |  |  |  | 
Cc1cc(S(=O)(=O)N=C2NCCN2Cc2cccc3ccccc23)c(SCc2nc(N)nc(Nc3ccccc3)n2)cc1Cl [Compound 75] | 30 ± 2 µM | 8 ± 0.5 µM | 77 ± 5 µM | 110 ± 5 µM |  |  |  | 
Cc1cc(S(=O)(=O)N=C2NCCN2Cc2cc(C(F)(F)F)cc(C(F)(F)F)c2)c(SCc2nc(N)nc(N(C)c3ccc(Cl)cc3)n2)cc1Cl [Compound 149] | 11.5 ± 0.6 µM | 11 ± 0.5 µM | 18 ± 1 µM | 33 ± 1 µM |  |  |  | 
Cc1cc(S(=O)(=O)N=C2NCCN2Cc2cc(C(F)(F)F)cc(C(F)(F)F)c2)c(SCc2nc(N)nc(NCc3ccccc3)n2)cc1Cl [Compound 148] | 9.5 ± 0.2 µM | 8.5 ± 0.5 µM | 15 ± 1 µM | 29 ± 1 µM |  |  |  | 
Cc1cc(S(=O)(=O)N=C2NCCN2Cc2ccc(C(F)(F)F)cc2)c(SCc2nc(N)nc(N3CCN(c4ccccc4F)CC3)n2)cc1Cl [Compound 133] | 8 ± 0.3 µM | 16 ± 0.5 µM | 14 ± 1 µM | 25 ± 1 µM |  |  |  | 
Cc1cc(S(=O)(=O)N=C2NCCN2Cc2ccccc2)c(SCc2nc(N)nc(N3CCN(c4ccc(Cl)c(Cl)c4)CC3)n2)cc1Cl [Compound 64] | 11 ± 0.4 µM | 14 ± 0.5 µM | 15 ± 1 µM | 28 ± 1 µM |  |  |  | 
Cc1cc(S(=O)(=O)N=C2NCCN2Cc2ccc(Br)cc2)c(SCc2nc(N)nc(N3CCc4ccccc43)n2)cc1Cl [Compound 102] | 8 ± 0.4 µM | 7.5 ± 0.4 µM | 17 ± 1 µM | 33 ± 1 µM |  |  |  | 
CC1=NN(c2nc(N)nc(CSc3cc(Cl)c(C)cc3S(=O)(=O)N=C3NCCN3Cc3ccccc3)n2)C(C)(C)C1 [Compound 47] | 19 ± 0.2 µM | 20 ± 0.4 µM | 34 ± 0.3 µM | 45 ± 2 µM |  |  |  | 
Cc1cc(S(=O)(=O)N=C2NCCN2Cc2ccc(F)cc2)c(SCc2nc(N)nc(N(C)c3ccccc3)n2)cc1Cl [Compound 89] | 14 ± 0.7 µM | 18 ± 1 µM | 17 ± 0.6 µM | 31 ± 1 µM |  |  |  | 
Cc1cc(S(=O)(=O)N=C2NCCN2Cc2ccc(F)cc2)c(SCc2nc(N)nc(N3CCN(c4ccc(Cl)c(Cl)c4)CC3)n2)cc1Cl [Compound 98] | 7 ± 0.1 µM | 7 ± 0.4 µM | 8 ± 0.4 µM | 18 ± 1 µM |  |  |  | 
Cc1cc(S(=O)(=O)N=C2NCCN2)c(SCc2nc(N)nc(N3CC=C(c4ccc(F)cc4)CC3)n2)cc1Cl [Compound 44] | 14 ± 0.5 µM | 16 ± 0.5 µM | 14 ± 0.5 µM | 28 ± 1 µM |  |  |  | 
Cc1cc(S(=O)(=O)N=C2NCCN2Cc2ccc(Br)cc2)c(SCc2nc(N)nc(N3CCN(c4ccc(Cl)c(Cl)c4)CC3)n2)cc1Cl [Compound 110] | 20 ± 0.6 µM | 23 ± 1 µM | 85 ± 5 µM | 123 ± 6 µM |  |  |  | 
Cc1cc(S(=O)(=O)N=C2NCCN2Cc2ccc(C(F)(F)F)cc2)c(SCc2nc(N)nc(N3CCN(c4ccc(F)cc4)CC3)n2)cc1Cl [Compound 132] | 8 ± 0.2 µM | 17 ± 0.4 µM | 16 ± 1 µM | 26 ± 1 µM |  |  |  | 
Cc1cc(S(=O)(=O)N=C2NCCCN2Cc2ccc(C(F)(F)F)cc2)c(SCc2nc(N)nc(N3CCN(c4ccc(Cl)cc4)CC3)n2)cc1Cl [Compound 161] | 6.5 ± 0.1 µM | 6.5 ± 0.2 µM | 14 ± 0.5 µM | 27 ± 1 µM |  |  |  | 
Cc1cc(S(=O)(=O)N=C2NCCN2Cc2ccc(C(F)(F)F)cc2)c(SCc2nc(N)nc(Nc3ccccc3)n2)cc1Cl [Compound 122] | 14 ± 0.4 µM | 20 ± 1 µM | 19 ± 0.5 µM | 35 ± 1 µM |  |  |  | 
Cc1cc(S(=O)(=O)N=C2NCCN2Cc2ccc(C(F)(F)F)cc2)c(SCc2nc(N)nc(N3CCN(C(c4ccccc4)c4ccccc4)CC3)n2)cc1Cl [Compound 141] | 7.5 ± 0.2 µM | 9.5 ± 0.5 µM | 45 ± 2 µM | 180 ± 9 µM |  |  |  | 
Cc1cc(S(=O)(=O)N=C2NCCN2Cc2ccc(C(F)(F)F)cc2)c(SCc2nc(N)nc(Nc3ccc(C(F)(F)F)cc3)n2)cc1Cl [Compound 125] | 7.5 ± 0.2 µM | 7.5 ± 0.2 µM | 13 ± 0.5 µM | 25 ± 1 µM |  |  |  | 
COc1ccc(Nc2nc(N)nc(CSc3cc(Cl)c(C)cc3S(=O)(=O)N=C3NCCN3Cc3ccc(F)cc3)n2)cc1 [Compound 88] | 17 ± 0.5 µM | 31 ± 1 µM | 25 ± 2 µM | 43 ± 2 µM |  |  |  | 
Cc1cc(S(=O)(=O)N=C2NCCN2)c(SCc2nc(N)nc(N3CCN(c4ccc(F)cc4)CC3)n2)cc1Cl [Compound 32] | 14 ± 0.5 µM | 16 ± 0.5 µM | 14 ± 0.5 µM | 28 ± 1 µM |  |  |  | 
Cc1cc(S(=O)(=O)N=C2NCCN2Cc2ccc(Br)cc2)c(SCc2nc(N)nc(N3CCCc4ccccc43)n2)cc1Cl [Compound 103] | 7 ± 0.1 µM | 6.5 ± 0.3 µM | 16 ± 0.5 µM | 28 ± 1 µM |  |  |  | 
Cc1cc(S(=O)(=O)N=C2NCCN2Cc2ccccc2)c(SCc2nc(N)nc(N3CC=C(c4ccc(F)cc4)CC3)n2)cc1Cl [Compound 73] | < 6 µM | 7.5 ± 0.3 µM | 14 ± 0.3 µM | 29 ± 1 µM | 5.5 | 5.2 ± 0.2 µM | 3.8 | 2.0
Cc1cc(S(=O)(=O)N=C2NCCN2Cc2cccc3ccccc23)c(SCc2nc(N)nc(N(C)c3ccc(Cl)cc3)n2)cc1Cl [Compound 76] | 46 ± 1 µM | 25 ± 1 µM | 28 ± 2 µM | 99 ± 4 µM |  |  |  | 
Cc1cc(S(=O)(=O)N=C2NCCN2)c(SCc2nc(N)nc(N3CCN(c4ccc(C(F)(F)F)cc4)CC3)n2)cc1Cl [Compound 34] | 18 ± 1 µM | 12 ± 0.5 µM | 24 ± 2 µM | 41 ± 1 µM |  |  |  | 
Cc1cc(S(=O)(=O)N=C2NCCN2)c(SCc2nc(N)nc(NCc3ccccc3)n2)cc1Cl [Compound 27] | 39 ± 2 µM | 44 ± 1 µM | 74 ± 2 µM | 75 ± 3 µM |  |  |  | 
Cc1cc(S(=O)(=O)N=C2NCCN2Cc2cc(C(F)(F)F)cc(C(F)(F)F)c2)c(SCc2nc(N)nc(N3CCN(c4ccc(Cl)cc4)CC3)n2)cc1Cl [Compound 154] | 5 ± 0.1 µM | 6.5 ± 0.2 µM | 12 ± 1 µM | 26 ± 1 µM |  |  |  | 
Cc1cc(S(=O)(=O)N=C2NCCN2Cc2ccccc2)c(SCc2nc(N)nc(N3CCN(c4ccc(C(F)(F)F)cc4)CC3)n2)cc1Cl [Compound 60] | 8 ± 0.3 µM | 14 ± 0.3 µM | 9 ± 0.5 µM | 23 ± 1 µM |  |  |  | 
